In US20220143003A1, “COMPOSITIONS AND METHODS TO TREAT NON-ALCOHOLIC FATTY LIVER DISEASES (NAFLD)” (Coherus Biosciences, Inc., priority 2018, published 2022):

How the values were obtained:
Assay type in all cases: in vivo, male C57BL/6JRj mice
DIO-NASH mice [1] = assay: Oral glucose tolerance test (OGTT), week 7; settings: 6 h fasted, oral glucose 2 g/kg, group mean
Procedure: Animals were fasted 6 hours prior to oral glucose administration (2 g/kg). At the various time points after glucose administration, blood samples were collected into heparinized glass capillary tubes and immediately suspended in glucose/lactate system solution buffer (EKF-diagnostics, Germany). Blood glucose (BG) was measured using a BIOSEN c-Line glucose meter (EKF-diagnostics, Germany) according to the manufacturer's instructions. After the last blood sample, the animals were returned to the normal feeding schedule. The order of the animals were randomized before the procedure and mice were dosed with compounds just after the −60 minutes blood sample.
Oral glucose tolerance test (OGTT) in week 7. Temporal course of blood glucose levels during 6 h fasted OGTT. Oral glucose bolus (2 g/kg) at t=0 min.
Area under the curve calculated from the temporal course from 0-180 min OGTT. Values expressed as mean of n=12-14+SEM.

DIO-NASH mice [2] = assay: Plasma alanine transaminase (ALT) at termination; settings: for Plasma alanine transaminase (ALT) at termination: group mean
Procedure: (§1) For plasma biochemistry, tail blood was drawn directly through the capillary of a Microvette/Vacuette of the right dimension and anticoagulant and mixed by inversion 5 times. Blood was placed at 4° C. until centrifugation at 3000×g for 10 minutes at 4° C. The plasma supernatants were transferred to new tubes and immediately frozen on dry ice and stored at −80° C. until analysis.
(§2) Mouse insulin was measured in single determinations using the MSD platform (Meso Scale Diagnostics).
Plasma alanine transaminase (ALT) at termination (U/L). Values expressed as mean of n=11-14+SEM.

DIO-NASH mice [3] = assay: Plasma aspartate transaminase (AST) at termination; settings: group mean
Procedure: as §1, §2
Plasma aspartate transaminase (AST) at termination (U/L). Values expressed as mean of n=11-14+SEM.

DIO-NASH mice [4] = assay: Absolute and relative liver weight at termination; settings: for Absolute liver weight at termination / Liver weight at termination, relative (% of body weight): group mean
Procedure: Animals were terminated after 12 weeks of treatment in a non-fasting state. Animals were put under isoflurane anesthesia, the abdominal cavity was opened, and cardiac blood was drawn directly into a Vacuette of the right dimension and anticoagulant and mixed by inversion 5 times. Blood was placed at 4° C. until centrifugation at 3000×g for 10 minutes at 4° C. The plasma supernatants were transferred to new tubes and immediately frozen on dry ice and stored at −80° C. Upon necropsy, the whole liver was collected and weighed. The liver was sampled for histological and biochemical analyses as described below.
Absolute liver weight at termination (g). Values expressed as mean of n=12-14+SEM.
Liver weight at termination in relative (% of body weight) values. Values expressed as mean of n=12-14+SEM.

DIO-NASH mice [5] = assay: Liver hydroxyproline (HP) at termination, colorimetric assay; settings: for Relative liver hydroxyproline (HP) at termination / Total liver hydroxyproline (HP) at termination: group mean
Procedure: The liver post-biopsy for histological analyses was removed by dissection from the left lateral lobe, fixated in 4% formalin for 20-24 h, and subsequently embedded in paraffin. Liver biopsies for liver triglycerides and total cholesterol were dissected from the medial lobe, snap frozen in liquid nitrogen, and stored at −80° C., while liver biopsies for hydroxyproline were dissected from the caudal lobe (the entire lobe), snap frozen in liquid nitrogen and stored at −80° C. Finally, a liver sample for RNA isolation and gene expression analysis was dissected from the left lateral lobe, snap frozen in liquid nitrogen, and stored at −80° C. until processing.
For liver hydroxyproline (HP; a protein marker of fibrosis) quantification, liver samples were homogenized in 6 M HCl and hydrolyzed to degrade collagen. The samples were centrifuged, and the hydroxyproline content measured in duplicates in the supernatant, using a colorimetric assay (Quickzyme Biosciences) according to the manufacturer's instructions.
Relative liver hydroxyproline (HP) (μg/mg of liver) at termination. Values expressed as mean of n=12-14+SEM.
Total liver hydroxyproline (HP) (μg/liver) at termination. Values expressed as mean of n=12-14+SEM.

DIO-NASH mice [6] = assay: Liver Collagen 1A1 (Col1a1) IHC quantified by morphometry; settings: for Relative terminal liver Col1a1 by morphometry / Total terminal Col1a1 (% fractional area multiplied with liver weight): group mean
Procedure: After surgery, the animals were evaluated daily on general health and body weight. […] The pre-biopsy was analyzed to evaluate liver steatosis score and fibrosis stage for study inclusion as outlined by Kleiner et al. (2005) (Table 1). In addition, liver Collagen 1a1 (Col1a1) quantified by morphometry was used to perform a stratified randomization of NASH-affected animals into study groups (see description of histopathological stains and analyses below).
Protein markers of fibrosis (Col1a1), fibrogenesis (α-SMA) and inflammation (Gal-3) were assessed by immunohistochemistry. α-SMA and collagen type I increase in regulation of quiescent hepatic stellate cell activation into myofibroblast-like cells where activated hepatic stellate cells are the main collagen producing cells in the liver (Carpino et al 2005, Hou and Syn 2018) whereas Gal-3 is involved in mediating inflammatory response and considered as a macrophage activation marker (Sciacchitano et al, 2018). For morphometric quantification of liver Col1a1 (using antibody from Southern Biotech, Cat. #1310-01), alpha-smooth muscle actin (α-SMA; using antibody from Abcam, Cat. #Ab124964) and Galectin-3 (using antibody from Biolegend, Cat. #125402), IHC staining was performed using standard procedures. Briefly, after antigen retrieval and blocking of endogenous peroxidase activity, slides were incubated with primary antibody. For all IHC stains, the primary antibody was detected using a polymeric HRP-linker antibody conjugate and visualized using DAB as chromogen. Finally, sections were counterstained in hematoxylin and cover-slipped before scanning.
Quantitative assessment of immunoreactivity is evaluated as follows. IHC-positive staining is quantified by image analysis using the Visiomorph software (Visiopharm, Denmark). Visiomorph protocols are designed to analyze the virtual slides in two steps: 1. Crude detection of tissue at low magnification (1× objective). The liver capsule is excluded. 2. Detection of IHC-positive staining (e.g. green; collagen 1 IHC), tissue (e.g. red) and fat (e.g. pink) at high magnification (10×objective). The quantitative estimate of IHC-positive staining is calculated as an area fraction (AF) according to the following formula:
Liver fibrosis (Col1a1%) at baseline. Values expressed as mean of n=12-14+SEM.
Terminal liver Collagen 1A1 (Col1a1) was quantified by morphometry. Relative Terminal liver Col1a1 (% fractional area) is expressed as mean of n=12-14+SEM.
Total terminal Col1a1 values are in milligrams (% fractional area multiplied with liver weight) and expressed as mean of n=12-14+SEM.

[7] = CHS-131 High dose (alone or combined)
[8] = DIO-NASH mice, 12 weeks of treatment, summary of data

Row | SMILES | Area under the curve 0-180 min OGTT (blood glucose) (DIO-NASH mice [1]; [7]) | Plasma alanine transaminase (ALT) at termination (DIO-NASH mice [2]; [7]) [U/L] | Plasma aspartate transaminase (AST) at termination (DIO-NASH mice [3]; [7]) [U/L] | Absolute liver weight at termination (DIO-NASH mice [4]; [7]) [g] | Liver weight at termination, relative (% of body weight) (DIO-NASH mice [4]; [7]) | Relative liver hydroxyproline (HP) at termination (DIO-NASH mice [5]; [7]) | Total liver hydroxyproline (HP) at termination (DIO-NASH mice [5]; [7]) [μg/liver] | Relative terminal liver Col1a1 by morphometry (DIO-NASH mice [6]; [7]) [% fractional area] | Total terminal Col1a1 (% fractional area multiplied with liver weight) (DIO-NASH mice [6]; [7]) [milligrams] | further results
1 | O=S(=O)(Nc1cc(Cl)c(Oc2cnc3ccccc3c2)c(Cl)c1)c1ccc(Cl)cc1Cl [CHS-131] | 1.66e+03 | 140 | 166 | 3.14 | 8.15 % of body weight | 0.0802 μg/mg of liver | 250 | 6.77 | 220 | Area under the curve 0-180 min OGTT (blood glucose) (DIO-NASH mice [1]; CHS-131 Low dose): 1.53e+03; Plasma ALT, effect in words (DIO-NASH mice [2]; [8]): reduced; Decrease of plasma alanine aminotransferase (ALT) (DIO-NASH mice [2]; DIO-NASH mice, compared to DIO mice administered vehicle only (placebo)): 30%; Plasma alanine transaminase (ALT) at termination (DIO-NASH mice [2]; CHS-131 Low dose): 163 U/L; Plasma aspartate transaminase (AST) at termination (DIO-NASH mice [3]; CHS-131 Low dose): 189 U/L; Relative liver weight, effect in words (DIO-NASH mice [4]; DIO-NASH mice, compared to DIO mice administered vehicle only): No difference; Absolute liver weight at termination (DIO-NASH mice [4]; CHS-131 Low dose): 3.21 g; Liver weight at termination, relative (% of body weight) (DIO-NASH mice [4]; CHS-131 Low dose): 8.4 % of body weight; Marker of fibrosis hydroxyproline, effect in words (DIO-NASH mice [5]; [8]): positive trends for improvement; Improvement of liver hydroxyproline level at termination (marker of fibrosis) (DIO-NASH mice [5]; DIO-NASH mice, compared to DIO mice administered vehicle only, significant): 30%; Relative liver hydroxyproline (HP) at termination (DIO-NASH mice [5]; CHS-131 Low dose): 0.0631 μg/mg of liver; Total liver hydroxyproline (HP) at termination (DIO-NASH mice [5]; CHS-131 Low dose): 205 μg/liver; Decrease of terminal Collagen 1a1 (marker of fibrosis) (DIO-NASH mice [6]; DIO-NASH mice, compared to vehicle alone, trend): 15%; Relative terminal liver Col1a1 by morphometry (DIO-NASH mice [6]; CHS-131 Low dose): 6.64 % fractional area; Total terminal Col1a1 (% fractional area multiplied with liver weight) (DIO-NASH mice [6]; CHS-131 Low dose): 213 milligrams
2 | CSc1ccc(C(=O)/C=C/c2cc(C)c(OC(C)(C)C(=O)O)c(C)c2)cc1 [Elafibranor, reference compound] | 1.35e+03 | 144 | 205 | 4.2 | 13.1 % of body weight | 0.0389 μg/mg of liver | 164 | 6.27 | 270 | 
3 | OC[C@H]1O[C@@H](c2ccc(Cl)c(Cc3ccc(O[C@H]4CCOC4)cc3)c2)[C@H](O)[C@@H](O)[C@@H]1O [Empagliflozin, reference compound] | 1.31e+03 | 216 | 230 | 3.37 | 8.48 % of body weight | 0.0747 μg/mg of liver | 233 | 7.31 | 250 | 
